The text below walks through data of article PMC4835877, “HM71224, a novel Bruton’s tyrosine kinase inhibitor, suppresses B cell and monocyte activation and ameliorates arthritis in a mouse model: a potential drug for rheumatoid arthritis” (Arthritis Research & Therapy, 2016).

One assay relates to CD3+ T cells. Description: T cell signaling, phospho-flow of CD3/CD28-activated PBMCs. Conditions: CD3- and CD28-conjugated beads. It is filed as cell-based, human. How it is done:
For phospho-flow, B cells were activated by crosslinking their BCRs with anti-human IgM antibodies (10 μg/mL; BD Biosciences) for 10 minutes at 37 °C. Cells were then fixed with 2 % paraformaldehyde at 37 °C for 12 minutes, permeabilized, and stained with anti-CD3-FITC (SK7; BD Biosciences), anti-CD20-PerCP-Cy5.5 (H1; BD Biosciences), anti-pBtk (Y223)-Alexa647 (N35-86; BD Biosciences), anti-pPLCγ2 (Y759)-Alexa647 (K86-689.37; BD Biosciences), anti-pSTAT1 (Y701)-Alexa647 (4a; BD Biosciences), anti-pSTAT3 (Y705)-Alexa647 (4/P-STAT3; BD Biosciences), anti-pSTAT5 (Y694)-Alexa647 (47; BD Biosciences), and anti-pERK1/2 (T202/204)-Alexa647 (20A; BD Biosciences) antibodies. The cells were then washed and analyzed on an LSR II flow cytometer (BD Biosciences). Data were analyzed using FlowJo software, version 8.8 (Treestar, Ashland, OR, USA).
Figure S5. Effect of HM71224 on human T cell signaling. […] The expression level of p-STAT1, p-STAT3, p-STAT5, and p-ERK1/2 by CD3+ T cells was then measured by phospho-flow cytometry.

Assay [1] has as its system DBA/1 J mice with collagen-induced arthritis. The assay is described as follows: Collagen-induced arthritis (CIA) model. The format is in vivo, mouse. The conditions noted are these: dexamethasone 0.2 mg/kg once a day. Here is the method:
All animal experimental protocols were approved by the animal care and use committee of the Hanmi Research Center, and performed in accordance with approved guidelines. Male DBA/1 J mice (9 weeks old; n = 7 per group) were immunized with an emulsion of Complete Freund’s Adjuvant and bovine type II collagen (CII) (total volume, 0.07 mL) via intradermal injection at the base of the tail (day 0). Three weeks later, the mice received a booster immunization comprising bovine CII emulsified in Incomplete Freund’s Adjuvant. […] The arthritis score and body weight were measured three times per week for 2 weeks after administration of the drugs (Additional file 1: Figure S1). The arthritis score was determined by grading each paw from 0 to 4 based on erythema, swelling, and flexion of the joint and was expressed as the sum of the scores of all four paws. Serum levels of IL-6 were measured by Luminex analysis in a bead-based immunoassay (EMD Millipore Corporation). Serum levels of anti-CII and total IgG were measured by ELISA (Chondrex, Seattle, WA, USA; Bethyl Laboratories, Montgomery, TX, USA).
Micro-CT of the hind limbs was performed using a Siemens Inveon Micro-CT/PET scanner (Siemens Medical Solutions, Knoxville, TN, USA).
The hind legs of each mouse were fixed with 10 % formalin, decalcified in 5 % formic acid, and embedded in paraffin. Sections were then cut and stained with hematoxylin and eosin (H&E). The bone erosion index was scored from 0 to 4 according to the following criteria: 0 = no erosion, 1 = mild (focal subchondral erosion), 2 = moderate (multiple subchondral erosions), 3 = high (as above and focal erosion of talus), and 4 = maximum (multiple erosions of tarsal and metatarsal bones).
Figure S1. Experiment design of collagen induced arthritis. Untreated DBA/1J mice (n=7) served as healthy controls (Ctrl). DBA/1J mice (n= 56) were immunized Day 0 and day 21. On day 10 after boosting (i.e. day 31), the induction of CIA was evaluated. […] Immunized mice (n=42) were divided into 6 groups (n=7 in each group). […] CIA, collagen induced arthritis.

In the case of `C[C@@H]1CCN(C(=O)CC#N)C[C@@H]1N(C)c1ncnc2[nH]ccc12` [Tofacitinib], in the assay with CD3+ T cells, the “T cell receptor signaling (p-STAT1, p-STAT3 and p-STAT5)” value was “significantly suppressed”.
Consider `C[C@@H]1C[C@H]2[C@@H]3CCC4=CC(=O)C=C[C@]4(C)[C@@]3(F)[C@@H](O)C[C@]2(C)[C@@]1(O)C(=O)CO` [Dexa, dexamethasone, reference compound], for which the “AS, arthritis score” value turned out to be 1.1±0.5 in assay [1] (D0); 0.9±0.5 in assay [1] (D1); 0.4±0.2 in assay [1] (D4); 0.3±0.2 in assay [1] (D6); 0.3±0.2 in assay [1] (D8); 0.3±0.2 in assay [1] (D12). The “AS, arthritis score” value in assay [1] (D13) came out at 0.4±0.3; in assay [1] (D15), 0.3±0.2. For the same compound, the “Wt, weight” value in assay [1] (D0) is listed as 22.9±0.4 gram.
Turning to `C=CC(=O)N1CCC[C@@H](n2nc(-c3ccc(Oc4ccccc4)cc3)c3c(N)ncnc32)C1` [PCI-32765, Ibrutinib], in the assay with CD3+ T cells, the “T cell receptor signaling (p-STAT1, p-STAT3 and p-STAT5)” value is “not affected”; the “p-ERK1/2 in CD3+ T cells” value is “inhibited”.
